Data from PubChem BioAssay AID1919015 (Molecular Pharmacology Branch, DTP, NCI, 2023).

System: OVCAR-5 complex spheroids with HUVEC/MSC, viability, % test/control
Experiment: Anticancer human tumor OVCAR-5 cell line growth inhibition [AhR];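 note: spheroids exposed to compounds for 7 days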;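 for viability, T/C: 100% = DMSO vehicle control wells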
Conditions: for IC50: curve of first compound; for viability, T/C: stronger effect = lower value
Source text: Multicellular complex tumor spheroid response to aryl hydrocarbon receptor antagonists in combination with a variety of drugs and investigational agents in selected tumor cell lines
The current study was undertaken to assess response to aryl hydrocarbon receptor antagonists in combination with standard-of-care drugs and investigational agents in solid tumor complex spheroid models. Complex spheroids include a stromal component modeled by human endothelial cells (HUVEC) and fibroblasts modeled by human mesenchymal stem cells (MSCs). The concentration ranges selected for each drug and investigational agent were based upon clinically achievable concentrations if the clinical Cmax of the agent was known.
Compounds. The drugs and investigational agents: BAY 2416964 (NSC825713), GNF351 (NSC835774), CH-223191 (NSC835775), CPI-455 (NSC825282), aza-TdCyd (NSC777586), decitabine (NSC127716), belinostat (NSC758774), entinostat (NSC756642), pevonedistat (NSC761192), tazemetostat (NSC777109), talazoparib (NSC765396), olaparib (NSC753686), selinexor (NSC780203), nedisertib (M3814, NSC802822), bortezomib (NSC756655), venetoclax (NSC766270), doxorubicin (NSC123127), elimusertib (BAY189344, NSC800525), ceralasertib (AZD6738, NSC777638), TAK-243 (NSC785004), alisertib (NSC759677), etoposide (NSC141540), topotecan (NSC609699), eribulin (NSC707389), gemcitabine (NSC613327), carboplatin (NSC241240), cisplatin (NSC119875), and SN-38 (NSC673596) were obtained from the National Cancer Institute (NCI) Developmental Therapeutics Program Chemical Repository (32). The FDA-approved anticancer drug set is available from the Developmental Therapeutics Program at https://dtp.cancer.gov/organization/dscb/obtaining/available plates.htm. […] The stock solutions were prepared in dimethyl sulfoxide (DMSO, Sigma-Aldrich, St. Louis, MO, cat. D2650), except for the platinum compounds which were prepared in saline (Quality Biological, Gaithersburg, MD, cat. 114-055-101), at 800-fold the tested concentration and stored at -70 degrees C prior to their use. All drugs and investigational agents were tested over a range starting from a high concentration at or near the clinical Cmax and decreasing in half-log increments. If the clinical Cmax for an agent had not been determined, the highest concentration tested was 10 microM (Table 1).
Cell Culture. All cells were maintained in an incubator at 37 degrees C and 5% CO2 with 95% humidity. The PDC lines were cultured according to standard operating procedures established by the NCI PDMR (https://pdmr.cancer.gov). Briefly, all PDCs were thawed and cultured in Matrigel-coated flasks prepared with a working solution of 1X Ham's F-12 nutrient mix, without supplementation (Invitrogen, Waltham, MA, cat. 11765054), 100 U/mL penicillin-streptomycin (Invitrogen, cat. 15140122), and 2.5% Matrigel (Corning Inc., Corning, NY, cat. 354248) for the first three passages. All PDCs were cultured in complete DMEM/F-12 media containing advanced DMEM/F-12 (Invitrogen, cat. 12634028), 4.9% defined fetal bovine serum, heat inactivated (HyClone Laboratories Inc., Logan, UT, cat. SH30070.03HI), 389 ng/mL hydrocortisone (Sigma-Aldrich, cat. H4001), 9.7 ng/mL human EGF recombinant protein (Invitrogen, cat. PHG0313), 23.4 microg/mL adenine (Sigma-Aldrich, cat. A2786), 97.3 U/mL penicillin-streptomycin (Invitrogen, cat. 15140122), 1.9 mM L-glutamine (Invitrogen, cat. 25030081), and 9.7 microM Y-27632 dihydrochloride (Tocris Bioscience, Bristol, United Kingdom, cat. 1254). The PDCs were cultured in complete DMEM/F12 media without 10 microM Y-27632 dihydrochloride for at least two passages prior to the screen. The established cell lines NCI-H1341 and […] were cultured in DMEM/F-12, HEPES (Invitrogen, cat. 11330032), 5% defined fetal bovine serum (HyClone Laboratories Inc., cat. SH30070.03), ITS premix universal culture supplement [insulin (5 microg/mL), transferrin (5 microg/mL), and selenious acid (5 ng/mL)] […]

[1] = second compound 0.1 µM, first compound 0.0316 µM
[2] = second compound 0.1 µM, first compound 0.1 µM
[3] = second compound 0.1 µM, first compound 0.316 µM
[4] = second compound 0.1 µM, first compound 1 µM
[5] = second compound 0.1 µM, first compound 3.16 µM
[6] = second compound 0.1 µM, first compound 10 µM
[7] = second compound 0.316 µM, first compound 0.0316 µM
[8] = second compound 0.316 µM, first compound 0.1 µM
[9] = second compound 0.316 µM, first compound 0.316 µM
[10] = second compound 0.316 µM, first compound 1 µM
[11] = second compound 0.316 µM, first compound 3.16 µM
[12] = second compound 0.316 µM, first compound 10 µM
[13] = second compound 1 µM, first compound 0.0316 µM
[14] = second compound 1 µM, first compound 0.1 µM
[15] = second compound 1 µM, first compound 0.316 µM
[16] = second compound 1 µM, first compound 1 µM
[17] = second compound 1 µM, first compound 3.16 µM
[18] = second compound 1 µM, first compound 10 µM
[19] = second compound 3.16 µM, first compound 0.0316 µM
[20] = second compound 3.16 µM, first compound 0.1 µM
[21] = second compound 3.16 µM, first compound 0.316 µM
[22] = second compound 3.16 µM, first compound 1 µM
[23] = second compound 3.16 µM, first compound 3.16 µM
[24] = second compound 3.16 µM, first compound 10 µM
[25] = second compound 10 µM, first compound 0.0316 µM
[26] = second compound 10 µM, first compound 0.1 µM
[27] = second compound 10 µM, first compound 0.316 µM
[28] = second compound 10 µM, first compound 1 µM
[29] = second compound 10 µM, first compound 3.16 µM
[30] = second compound 10 µM, first compound 10 µM

`CC(C)CC(NC(=O)C(Cc1ccccc1)NC(=O)c1cnccn1)B(O)O` (stereo not given) + CC(CO)NC(=O)c1cc(-c2ccc(Cl)cc2)nn(-c2cnn(C)c2)c1=O was tested, and the IC50 (second compound 0.1 µM) was 23.3 nM, the IC50 (second compound 0.316 µM) was 23.8 nM and the IC50 (second compound 1 µM) was 24.2 nM. For the same compound, the IC50 (second compound 3.16 µM) was 22.1 nM, the IC50 (second compound 10 µM) was 20.3 nM and the viability, T/C (second compound 0.1 µM, first compound 0.000949 µM) was 101%. The viability, T/C (second compound 0.1 µM, first compound 0.003 µM) was 111%, the viability, T/C (second compound 0.1 µM, first compound 0.00949 µM) was 90.8% and the viability, T/C (second compound 0.1 µM, first compound 0.03 µM) was 38.2%. The viability, T/C (second compound 0.1 µM, first compound 0.0949 µM) was 18.2%, the viability, T/C (second compound 0.1 µM, first compound 0.3 µM) was 11% and the viability, T/C (second compound 0.316 µM, first compound 0.000949 µM) was 104%. It also gave a viability, T/C (second compound 0.316 µM, first compound 0.003 µM) of 112%, a viability, T/C (second compound 0.316 µM, first compound 0.00949 µM) of 89.6% and a viability, T/C (second compound 0.316 µM, first compound 0.03 µM) of 39.1%. The viability, T/C (second compound 0.316 µM, first compound 0.0949 µM) was 20%, the viability, T/C (second compound 0.316 µM, first compound 0.3 µM) was 8.57% and the viability, T/C (second compound 1 µM, first compound 0.000949 µM) was 107%. It also gave a viability, T/C (second compound 1 µM, first compound 0.003 µM) of 111%, a viability, T/C (second compound 1 µM, first compound 0.00949 µM) of 95% and a viability, T/C (second compound 1 µM, first compound 0.03 µM) of 39.1%. For the same compound, the viability, T/C (second compound 1 µM, first compound 0.0949 µM) was 20.5%, the viability, T/C (second compound 1 µM, first compound 0.3 µM) was 11.5% and the viability, T/C (second compound 3.16 µM, first compound 0.000949 µM) was 96%. For the same compound, the viability, T/C (second compound 3.16 µM, first compound 0.003 µM) was 105%, the viability, T/C (second compound 3.16 µM, first compound 0.00949 µM) was 87.3% and the viability, T/C (second compound 3.16 µM, first compound 0.03 µM) was 36%. The viability, T/C (second compound 3.16 µM, first compound 0.0949 µM) was 20%, the viability, T/C (second compound 3.16 µM, first compound 0.3 µM) was 12.4% and the viability, T/C (second compound 10 µM, first compound 0.000949 µM) was 88.3%. For the same compound, the viability, T/C (second compound 10 µM, first compound 0.003 µM) was 97.7%, the viability, T/C (second compound 10 µM, first compound 0.00949 µM) was 79.4% and the viability, T/C (second compound 10 µM, first compound 0.03 µM) was 34.4%. It also gave a viability, T/C (second compound 10 µM, first compound 0.0949 µM) of 22.4% and a viability, T/C (second compound 10 µM, first compound 0.3 µM) of 13.7%.

Compound `Nc1ccccc1NC(=O)c1ccc(CNC(=O)OCc2cccnc2)cc1` + CC(CO)NC(=O)c1cc(-c2ccc(Cl)cc2)nn(-c2cnn(C)c2)c1=O has an IC50 (second compound 0.1 µM) of 481 nM, an IC50 (second compound 0.316 µM) of 514 nM and an IC50 (second compound 1 µM) of 512 nM. It also gave an IC50 (second compound 3.16 µM) of 444 nM, an IC50 (second compound 10 µM) of 397 nM and a viability, T/C [1] of 92%. For the same compound, the viability, T/C [2] was 80.7%, the viability, T/C [3] was 59.7% and the viability, T/C [4] was 32.3%. For the same compound, the viability, T/C [5] was 19.5%, the viability, T/C [6] was 7.46% and the viability, T/C [7] was 95.9%. The viability, T/C [8] was 86.6%, the viability, T/C [9] was 63.2% and the viability, T/C [10] was 31%. For the same compound, the viability, T/C [11] was 18.3%, the viability, T/C [12] was 7.56% and the viability, T/C [13] was 95.2%. For the same compound, the viability, T/C [14] was 85.3%, the viability, T/C [15] was 63.6% and the viability, T/C [16] was 30.9%. For the same compound, the viability, T/C [17] was 17.4%, the viability, T/C [18] was 7.87% and the viability, T/C [19] was 85.9%. It also gave a viability, T/C [20] of 77.8%, a viability, T/C [21] of 59.7% and a viability, T/C [22] of 27.9%. The viability, T/C [23] was 14.6%, the viability, T/C [24] was 6.5% and the viability, T/C [25] was 83.9%. For the same compound, the viability, T/C [26] was 81.3%, the viability, T/C [27] was 55.1% and the viability, T/C [28] was 24.6%. The viability, T/C [29] was 12.8% and the viability, T/C [30] was 4.72%.

With `O=C(c1cc(Cc2n[nH]c(=O)c3ccccc23)ccc1F)N1CCN(C(=O)C2CC2)CC1` + CC(CO)NC(=O)c1cc(-c2ccc(Cl)cc2)nn(-c2cnn(C)c2)c1=O the IC50 (second compound 0.1 µM) was > 10000 nM, the IC50 (second compound 0.316 µM) was > 10000 nM and the IC50 (second compound 1 µM) was > 10000 nM. For the same compound, the IC50 (second compound 3.16 µM) was > 10000 nM, the IC50 (second compound 10 µM) was > 10000 nM and the viability, T/C [1] was 112%. For the same compound, the viability, T/C [2] was 106%, the viability, T/C [3] was 107% and the viability, T/C [4] was 102%. It also gave a viability, T/C [5] of 102%, a viability, T/C [6] of 98.3% and a viability, T/C [7] of 111%. The viability, T/C [8] was 112%, the viability, T/C [9] was 108% and the viability, T/C [10] was 107%. It also gave a viability, T/C [11] of 106%, a viability, T/C [12] of 102% and a viability, T/C [13] of 109%. For the same compound, the viability, T/C [14] was 114%, the viability, T/C [15] was 115% and the viability, T/C [16] was 112%. For the same compound, the viability, T/C [17] was 113%, the viability, T/C [18] was 107% and the viability, T/C [19] was 104%. The viability, T/C [20] was 104%, the viability, T/C [21] was 102% and the viability, T/C [22] was 101%. It also gave a viability, T/C [23] of 97.5%, a viability, T/C [24] of 94.8% and a viability, T/C [25] of 99.4%. It also gave a viability, T/C [26] of 101%, a viability, T/C [27] of 96.6% and a viability, T/C [28] of 99.4%. It also gave a viability, T/C [29] of 94.4% and a viability, T/C [30] of 90.7%.
